SMILES strings stand for the structures.

T1 sequence (O76083 whole entry): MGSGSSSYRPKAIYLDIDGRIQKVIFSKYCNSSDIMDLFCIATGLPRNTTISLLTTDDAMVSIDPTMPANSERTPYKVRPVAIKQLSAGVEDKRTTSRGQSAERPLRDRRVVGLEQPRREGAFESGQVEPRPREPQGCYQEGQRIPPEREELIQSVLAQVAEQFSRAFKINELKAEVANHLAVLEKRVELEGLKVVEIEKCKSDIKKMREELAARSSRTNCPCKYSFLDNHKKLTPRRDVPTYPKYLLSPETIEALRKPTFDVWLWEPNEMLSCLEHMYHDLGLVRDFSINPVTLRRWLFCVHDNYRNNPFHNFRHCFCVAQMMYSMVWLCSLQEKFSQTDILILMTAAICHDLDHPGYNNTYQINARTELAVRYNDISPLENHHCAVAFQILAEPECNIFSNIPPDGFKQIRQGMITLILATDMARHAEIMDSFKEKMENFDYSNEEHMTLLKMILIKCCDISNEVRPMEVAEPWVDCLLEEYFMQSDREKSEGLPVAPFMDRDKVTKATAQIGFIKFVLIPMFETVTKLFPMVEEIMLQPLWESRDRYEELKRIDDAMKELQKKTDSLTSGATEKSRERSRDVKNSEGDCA

The first test concerns the target T1, human recombinant PDE9 enzyme (Homo sapiens, UniProt O76083).
T1 construct: made in house; host or cells: SF-9 insect cells
The experiment in a line: Phosphodiesterase 9 (PDE9) inhibitory activity, Scintillation Proximity (SPA) assay. The test is classed as biochemical.
Details: not given
In short, it runs like this:
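Scintillation proximity read-out of [3H]cGMP hydrolysis after 30 min at room temperature, with enzyme addition starting the reaction. The enzyme was human recombinant PDE9 expressed in SF-9 cells, titrated to keep substrate turnover at 20% or less. Compound wells held 2% DMSO final, and background was defined with excess PDE inhibitor.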
(In general: Scintillation proximity formats need no separation of bound from free tracer.)
By IC50 is commonly meant the concentration that gives 50% inhibition. For `C[C@@H]1CN(Cc2cccc(F)c2)C[C@H]1c1nc2c(cnn2C2CCOCC2)c(=O)[nH]1` [Example 89, 6-[(3S,4S)-1-(3-fluorobenzyl)-4-methylpyrrolidin-3-yl]-1-(tetrahydro-2H-pyran-4-yl)-1,5-dihydro-4H-pyrazolo[3,4-d]pyrimidin-4-one], the IC50 came to 1.7 nM.
`C[C@@H]1CN(Cc2ccccc2F)C[C@H]1c1nc2c(cnn2C2CCOCC2)c(=O)[nH]1` [Example 98, 6-[(3S,4S)-1-(2-fluorobenzyl)-4-methylpyrrolidin-3-yl]-1-(tetrahydro-2H-pyran-4-yl)-1,5-dihydro-4H-pyrazolo[3,4-d]pyrimidin-4-one]: the IC50 worked out at 7.93 nM.

Still in this test, the particulars now being: human recombinant PDE9 from SF-9 cells; 50 nM [3H]cGMP; room temperature, 30 min; Examples 3-114; read-out: G5678A (U): IC50.
With `C[C@@H]1CN(Cc2cccc(C(F)(F)F)c2)C[C@H]1c1nc2c(cnn2C2CCCC2)c(=O)[nH]1` (racemic) [Example 8, 1-cyclopentyl-6-{(3,4-trans)-4-methyl-1-[3-(trifluoromethyl)benzyl]pyrrolidin-3-yl}-1,5-dihydro-4H-pyrazolo[3,4-d]pyrimidin-4-one], the half-maximal inhibitory concentration (IC50) was 11.2 nM.
As for `CC[C@@H]1CN(C(=O)c2cnc3ccccc3n2)C[C@H]1c1nc2c(cnn2C2CCOCC2)c(=O)[nH]1` [Example 110, 6-[(3S,4S)-4-ethyl-1-(quinoxalin-2-ylcarbonyl)pyrrolidin-3-yl]-1-(tetrahydro-2H-pyran-4-yl)-1,5-dihydro-4H-pyrazolo[3,4-d]pyrimidin-4-one], the IC50 is 2.59 nM.
As for `CC[C@@H]1CN(Cc2ccccn2)C[C@H]1c1nc2c(cnn2C2CCOCC2)c(=O)[nH]1` [Example 109, 6-[(3S,4S)-4-ethyl-1-(pyridin-2-ylmethyl)pyrrolidin-3-yl]-1-(tetrahydro-2H-pyran-4-yl)-1,5-dihydro-4H-pyrazolo[3,4-d]pyrimidin-4-one], the IC50 came to 4.21 nM.
On to `CC(C)n1ncc2c(=O)[nH]c([C@@H]3CN(Cc4cnc5ccccc5c4)C[C@H]3C)nc21` [Example 37, 1-isopropyl-6-[(3S,4S)-4-methyl-1-(quinolin-3-ylmethyl)pyrrolidin-3-yl]-1,5-dihydro-4H-pyrazolo[3,4-d]pyrimidin-4-one], for which the IC50 is 3.23 nM.
Same read-out and setting: for `O=c1[nH]c(C2CCN(Cc3ccccc3)C2)nc2c1cnn2C1CCCC1` (stereo not shown) [Example 42, 6-(1-benzylpyrrolidin-3-yl)-1-cyclopentyl-1,5-dihydro-4H-pyrazolo[3,4-d]pyrimidin-4-one] the value was 268 nM.
Consider `CC[C@@H]1CN(Cc2cnc(C)nc2)C[C@H]1c1nc2c(cnn2C(C)C)c(=O)[nH]1` (relative stereo) [Example 59, 6-{(3,4-trans)-4-ethyl-1-[(2-methylpyrimidin-5-yl)methyl]pyrrolidin-3-yl}-1-isopropyl-1,5-dihydro-4H-pyrazolo[3,4-d]pyrimidin-4-one], for which the half-inhibitory concentration (IC50) was found to be 7.37 nM.
As to `CC(C)n1ncc2c(=O)[nH]c([C@@H]3CN(Cc4ccnc5nccnc45)C[C@H]3C)nc21` [Example 68, 1-isopropyl-6-[(3S,4S)-4-methyl-1-(pyrido[2,3-b]pyrazin-8-ylmethyl)pyrrolidin-3-yl]-1,5-dihydro-4H-pyrazolo[3,4-d]pyrimidin-4-one], the IC50 stood at 36.7 nM.
With `Cc1nccc(CN2C[C@@H](C)[C@H](c3nc4c(cnn4C4CCCC4)c(=O)[nH]3)C2)n1` [Example 53, 1-cyclopentyl-6-{(3S,4S)-4-methyl-1-[(2-methylpyrimidin-4-yl)methyl]pyrrolidin-3-yl}-1,5-dihydro-4H-pyrazolo[3,4-d]pyrimidin-4-one], the IC50 was determined as 7.3 nM.
Take `COc1ccc(CN2C[C@@H](C)[C@H](c3nc4c(cnn4C4CCOCC4)c(=O)[nH]3)C2)cn1` [Example 76, 6-{(3S,4S)-1-[(6-methoxypyridin-3-yl)methyl]-4-methylpyrrolidin-3-yl}-1-(tetrahydro-2H-pyran-4-yl)-1,5-dihydro-4H-pyrazolo[3,4-d]pyrimidin-4-one]: the concentration for half-maximal inhibition (IC50) turned out to be 3.5 nM.
Regarding `C[C@@H]1CN(Cc2cnc3ccccc3n2)C[C@H]1c1nc2c(cnn2C2CCOCC2)c(=O)[nH]1` [Example 85], the concentration for half-maximal inhibition (IC50) came to 0.903 nM.
Consider `O=c1[nH]c([C@@H]2CN(Cc3ccccc3)C[C@H]2C2CC2)nc2c1cnn2C1CCCC1` (racemic) [Example 29, 6-[(3,4-trans)-1-benzyl-4-cyclopropylpyrrolidin-3-yl]-1-cyclopentyl-1,5-dihydro-4H-pyrazolo[3,4-d]pyrimidin-4-one], for which the IC50 was determined as 2.17 nM.
On to `CN1C[C@@H](c2nc3c(cnn3C3CCCC3)c(=O)[nH]2)[C@H](C2CC2)C1` (racemic) [Example 57, 1-cyclopentyl-6-[(3,4-trans)-4-cyclopropyl-1-methylpyrrolidin-3-yl]-1,5-dihydro-4H-pyrazolo[3,4-d]pyrimidin-4-one], for which the IC50 is 122 nM.
Turning to `COc1ccc(CN2C[C@@H](C)[C@H](c3nc4c(cnn4C(C)C)c(=O)[nH]3)C2)cn1` [Example 43, 1-isopropyl-6-{(3S,4S)-1-[(6-methoxypyridin-3-yl)methyl]-4-methylpyrrolidin-3-yl}1,5-dihydro-4H-pyrazolo[3,4-d]pyrimidin-4-one], the half-maximal inhibitory concentration (IC50) amounted to 36.4 nM.
Turning to `C[C@@H]1CN(CCc2ccccc2)C[C@H]1c1nc2c(cnn2C2CCCC2)c(=O)[nH]1` (racemic) [Example 24, 1-cyclopentyl-6-[(3,4-trans)-4-methyl-1-(2-phenylethyl)pyrrolidin-3-yl]-1,5-dihydro-4H-pyrazolo[3,4-d]pyrimidin-4-one], the 50% inhibitory concentration (IC50) stood at 119 nM.
`Cc1ncc(CN2C[C@@H](C)[C@H](c3nc4c(cnn4C(C)C)c(=O)[nH]3)C2)cn1` [Example 41, 1-isopropyl-6-{(3S,4S)-4-methyl-1-[(2-methylpyrimidin-5-yl)methyl]pyrrolidin-3-yl}-1,5-dihydro-4H-pyrazolo[3,4-d]pyrimidin-4-one]: the IC50 came to 63.8 nM.

Staying with this test, now noted: human recombinant PDE9 from SF-9 cells; 50 nM [3H]cGMP; room temperature, 30 min; additional compounds Ex. 115-228; read-out: G5678A (U):IC50.
Turning to `C[C@@H]1CN(Cc2ccc(CN3CCOCC3)cc2)C[C@H]1c1nc2c(cnn2C2CCCC2)c(=O)[nH]1` (racemic) [Example 207, 1-cyclopentyl-6-{(3,4-trans)-4-methyl-1-[4-(morpholin-4-ylmethyl)benzyl]pyrrolidin-3-yl}-1,5-dihydro-4H-pyrazolo[3,4-d]pyrimidin-4-one], the 50% inhibitory concentration (IC50) came out at 46.2 nM.
Take `C[C@@H]1CN(Cc2nc3cnccc3n2C)C[C@H]1c1nc2c(cnn2C2CCCC2)c(=O)[nH]1` (racemic) [Example 226, 1-cyclopentyl-6-{(3,4-trans)-4-methyl-1-[(1-methyl-1H-imidazo[4,5-c]pyridin-2-yl)methyl]pyrrolidin-3-yl}-1,5-dihydro-4H-pyrazolo[3,4-d]pyrimidin-4-one]: the concentration for half-maximal inhibition (IC50) came to 3.78 nM.
Regarding `CCOc1ncccc1CN1C[C@@H](C)[C@H](c2nc3c(cnn3C3CCCC3)c(=O)[nH]2)C1` (racemic) [Example 120, 1-cyclopentyl-6-{(3,4-trans)-1-[(2-ethoxypyridin-3-yl)methyl]-4-methylpyrrolidin-3-yl}-1,5-dihydro-4H-pyrazolo[3,4-d]pyrimidin-4-one], the half-maximal inhibitory concentration (IC50) is 62.7 nM.
The same measure, in the same setting: the result for `C[C@@H]1CN(Cc2cnn3c2CCC3)C[C@H]1c1nc2c(cnn2C2CCCC2)c(=O)[nH]1` (racemic) [Example 228, 1-cyclopentyl-6-[(3,4-trans)-1-(5,6-dihydro-4H-pyrrolo[1,2-b]pyrazol-3-ylmethyl)-4-methylpyrrolidin-3-yl]-1,5-dihydro-4H-pyrazolo[3,4-d]pyrimidin-4-one] reads 49.1 nM; that for `C[C@@H]1CN(Cc2cccc3ccccc23)C[C@H]1c1nc2c(cnn2C2CCCC2)c(=O)[nH]1` (racemic) [Example 142, 1-cyclopentyl-6-[(3,4-trans)-4-methyl-1-(1-naphthylmethyl)pyrrolidin-3-yl]-1,5-dihydro-4H-pyrazolo[3,4-d]pyrimidin-4-one], 47.5 nM; that for `COc1cc(CN2C[C@@H](C)[C@H](c3nc4c(cnn4C4CCCC4)c(=O)[nH]3)C2)ccc1C` (racemic) [Example 141, 1-cyclopentyl-6-[(3,4-trans)-1-(3-methoxy-4-methylbenzyl)-4-methylpyrrolidin-3-yl]-1,5-dihydro-4H-pyrazolo[3,4-d]pyrimidin-4-one], 53.1 nM.
With `C[C@@H]1CN(Cc2cccc(-n3cccn3)n2)C[C@H]1c1nc2c(cnn2C2CCCC2)c(=O)[nH]1` (racemic) [Example 135, 1-cyclopentyl-6-[(3,4-trans)-4-methyl-1-{[6-(1H-pyrazol-1-yl)pyridin-2-yl]methyl}pyrrolidin-3-yl]-1,5-dihydro-4H-pyrazolo[3,4-d]pyrimidin-4-one], the IC50 is 91.6 nM.
As to `C[C@@H]1CN(Cc2ccc(F)cc2F)C[C@H]1c1nc2c(cnn2C2CCCC2)c(=O)[nH]1` (racemic) [Example 147, 1-cyclopentyl-6-[(3,4-trans)-1-(2,4-difluorobenzyl)-4-methylpyrrolidin-3-yl]-1,5-dihydro-4H-pyrazolo[3,4-d]pyrimidin-4-one], the IC50 was 79.8 nM.
Turning to `C[C@@H]1CN(Cc2cccc(Cl)c2Cl)C[C@H]1c1nc2c(cnn2C2CCCC2)c(=O)[nH]1` (racemic) [Example 164, 1-cyclopentyl-6-[(3,4-trans)-1-(2,3-dichlorobenzyl)-4-methylpyrrolidin-3-yl]-1,5-dihydro-4H-pyrazolo[3,4-d]pyrimidin-4-one], the half-inhibitory concentration (IC50) turned out to be 78.9 nM.
In the case of `C[C@@H]1CN(Cc2cc(F)cc(F)c2)C[C@H]1c1nc2c(cnn2C2CCCC2)c(=O)[nH]1` (racemic) [Example 227, 1-cyclopentyl-6-[(3,4-trans)-1-(3,5-difluorobenzyl)-4-methylpyrrolidin-3-yl]-1,5-dihydro-4H-pyrazolo[3,4-d]pyrimidin-4-one], the IC50 came to 7.42 nM.
For the compound `C[C@@H]1CN(Cc2ccc(-n3cccn3)cc2)C[C@H]1c1nc2c(cnn2C2CCCC2)c(=O)[nH]1` (racemic) [Example 185, 1-cyclopentyl-6-{(3,4-trans)-4-methyl-1-[4-(1H-pyrazol-1-yl)benzyl]pyrrolidin-3-yl}-1,5-dihydro-4H-pyrazolo[3,4-d]pyrimidin-4-one], the IC50 is 33.5 nM.

Source of the values: patent US7964607B2, “Pyrazolo[3,4-d]pyrimidine compounds” (Pfizer Inc., priority 2007, dated 2011).
